The CheMixHub viscosity set
± gives the uncertainty stated by the source.

Experiment: xn = mol fraction of the nth substance listed

Cc1cc(C)cc(C)c1 + C1CCCCC1
viscosity [mPa·s], 101 kPa
Conditions | 303 K | 303.15 K | 308.15 K | 313 K | 313.15 K | 318.15 K | 323 K | 323.15 K
x1 = 0.1001 | – | 0.7294 ± 0.0076 | 0.6779 ± 0.0073 | – | 0.6321 ± 0.0071 | 0.591 ± 0.0069 | – | 0.5529 ± 0.0067
x1 = 0.1028 | 0.7231 ± 0.0051 | – | – | 0.6296 ± 0.0045 | – | – | 0.5473 ± 0.004 | –
x1 = 0.2001 | – | 0.6775 ± 0.0073 | 0.6326 ± 0.0071 | – | 0.5925 ± 0.0069 | 0.5562 ± 0.0067 | – | 0.5229 ± 0.0066
x1 = 0.2002 | 0.6616 ± 0.0048 | – | – | 0.5833 ± 0.0043 | – | – | 0.518 ± 0.0039 | –
x1 = 0.299 | 0.6393 ± 0.0047 | – | – | 0.5651 ± 0.0042 | – | – | 0.5048 ± 0.0039 | –
x1 = 0.3 | – | 0.6444 ± 0.0072 | 0.6039 ± 0.0069 | – | 0.5675 ± 0.0068 | 0.5341 ± 0.0066 | – | 0.5036 ± 0.0065
x1 = 0.396 | 0.6187 ± 0.0047 | – | – | 0.5553 ± 0.0042 | – | – | 0.4899 ± 0.0038 | –
x1 = 0.4 | – | 0.6263 ± 0.0071 | 0.5881 ± 0.0069 | – | 0.5539 ± 0.0067 | 0.5231 ± 0.0066 | – | 0.4941 ± 0.0064
x1 = 0.4961 | 0.6085 ± 0.0047 | – | – | 0.5439 ± 0.0042 | – | – | 0.4892 ± 0.0039 | –
x1 = 0.5 | – | 0.6163 ± 0.007 | 0.5791 ± 0.0068 | – | 0.5465 ± 0.0067 | 0.5165 ± 0.0065 | – | 0.4886 ± 0.0064
x1 = 0.5971 | 0.6054 ± 0.0047 | – | – | 0.54 ± 0.0043 | – | – | 0.4863 ± 0.0039 | –
x1 = 0.6 | – | 0.6104 ± 0.007 | 0.5748 ± 0.0068 | – | 0.5431 ± 0.0066 | 0.5143 ± 0.0065 | – | 0.4873 ± 0.0064
x1 = 0.699 | 0.6015 ± 0.0048 | – | – | 0.5379 ± 0.0043 | – | – | 0.4853 ± 0.004 | –
x1 = 0.7 | – | 0.6099 ± 0.007 | 0.5746 ± 0.0068 | – | 0.5428 ± 0.0066 | 0.514 ± 0.0065 | – | 0.4871 ± 0.0064
x1 = 0.7992 | 0.6055 ± 0.0049 | – | – | 0.543 ± 0.0044 | – | – | 0.4858 ± 0.004 | –
x1 = 0.8001 | – | 0.6119 ± 0.007 | 0.5767 ± 0.0068 | – | 0.5451 ± 0.0067 | 0.5165 ± 0.0065 | – | 0.4904 ± 0.0064
x1 = 0.8983 | 0.6081 ± 0.005 | – | – | 0.543 ± 0.0045 | – | – | 0.4893 ± 0.0041 | –
x1 = 0.9 | – | 0.6162 ± 0.007 | 0.5819 ± 0.0068 | – | 0.551 ± 0.0067 | 0.5223 ± 0.0066 | – | 0.494 ± 0.0064

Cc1cc(C)cc(C)c1 + C1CCOC1
298.15 K, 101 kPa
Conditions | viscosity [mPa·s]
x2 = 0.0735 | 0.5973 ± 0.01
x2 = 0.1513 | 0.5921 ± 0.01
x2 = 0.2274 | 0.5863 ± 0.01
x2 = 0.2986 | 0.5793 ± 0.01
x2 = 0.3672 | 0.5728 ± 0.01
x2 = 0.4305 | 0.5659 ± 0.0099
x2 = 0.4912 | 0.5568 ± 0.0098
x2 = 0.6055 | 0.5353 ± 0.0094
x2 = 0.6784 | 0.5237 ± 0.0092
x2 = 0.7516 | 0.512 ± 0.009
x2 = 0.828 | 0.4999 ± 0.0088
x2 = 0.879 | 0.4857 ± 0.0086
x2 = 0.9412 | 0.4724 ± 0.0083

Cc1cc(C)cc(C)c1 + CC(C)=O
307.35 K, 101.33 kPa
Conditions | viscosity [mPa·s]
x2 = 0.1387 | 0.541 ± 0.0096
x2 = 0.4493 | 0.447 ± 0.0088
x2 = 0.5975 | 0.403 ± 0.0084
x2 = 0.6567 | 0.383 ± 0.0083
x2 = 0.7521 | 0.362 ± 0.0081
x2 = 0.9168 | 0.313 ± 0.0077

O=S=O + CC(C)=O
298.15 K, 101 kPa
Conditions | viscosity [mPa·s]
x1 = 0.04866 | 0.3122 ± 0.0083
x1 = 0.1662 | 0.3313 ± 0.0088
x1 = 0.2057 | 0.3365 ± 0.0089
x1 = 0.2466 | 0.3415 ± 0.009
x1 = 0.2858 | 0.343 ± 0.0091
x1 = 0.4007 | 0.3471 ± 0.0092

O=C1CCCN1 + CC(C)CO
Conditions | viscosity [mPa·s]
303.15 K, 101 kPa, x1 = 0.9753 | 10.15 ± 0.76

O=C1CCCN1 + CC(O)CO
Conditions | viscosity [mPa·s]
298.15 K, 101.33 kPa, x1 = 0.06223 | 38.56 ± 0.81
298.15 K, 101.33 kPa, x1 = 0.09322 | 36.35 ± 0.75
298.15 K, 101.33 kPa, x1 = 0.1974 | 30.23 ± 0.63
298.15 K, 101.33 kPa, x1 = 0.2925 | 26.21 ± 0.55
298.15 K, 101.33 kPa, x1 = 0.3956 | 23.01 ± 0.49
298.15 K, 101.33 kPa, x1 = 0.5612 | 19.49 ± 0.43
298.15 K, 101.33 kPa, x1 = 0.5963 | 18.87 ± 0.4
298.15 K, 101.33 kPa, x1 = 0.7003 | 17.36 ± 0.36
298.15 K, 101.33 kPa, x1 = 0.7843 | 16.26 ± 0.34
298.15 K, 101.33 kPa, x1 = 0.8992 | 14.8 ± 0.31
298.15 K, 101.33 kPa, x1 = 0.9581 | 13.93 ± 0.29
308.15 K, 101.33 kPa, x1 = 0.05382 | 23.04 ± 0.48
308.15 K, 101.33 kPa, x1 = 0.1106 | 20.74 ± 0.43
308.15 K, 101.33 kPa, x1 = 0.1986 | 18.2 ± 0.38
308.15 K, 101.33 kPa, x1 = 0.3058 | 15.92 ± 0.33
308.15 K, 101.33 kPa, x1 = 0.3989 | 14.45 ± 0.31
308.15 K, 101.33 kPa, x1 = 0.512 | 12.98 ± 0.27
308.15 K, 101.33 kPa, x1 = 0.5975 | 12.23 ± 0.26
308.15 K, 101.33 kPa, x1 = 0.6998 | 11.39 ± 0.24
308.15 K, 101.33 kPa, x1 = 0.8034 | 10.71 ± 0.22
308.15 K, 101.33 kPa, x1 = 0.8984 | 9.939 ± 0.21
308.15 K, 101.33 kPa, x1 = 0.957 | 9.465 ± 0.2
313.15 K, 101 kPa, x1 = 0.0803 | 16.98 ± 0.15
313.15 K, 101 kPa, x1 = 0.1596 | 15.07 ± 0.13
313.15 K, 101 kPa, x1 = 0.2403 | 13.58 ± 0.11
313.15 K, 101 kPa, x1 = 0.3201 | 12.41 ± 0.1
313.15 K, 101 kPa, x1 = 0.4011 | 11.51 ± 0.093
313.15 K, 101 kPa, x1 = 0.481 | 10.79 ± 0.087
313.15 K, 101 kPa, x1 = 0.5617 | 10.17 ± 0.082
313.15 K, 101 kPa, x1 = 0.6394 | 9.657 ± 0.077
313.15 K, 101 kPa, x1 = 0.7192 | 9.2 ± 0.073
313.15 K, 101 kPa, x1 = 0.7993 | 8.742 ± 0.069
313.15 K, 101 kPa, x1 = 0.8723 | 8.338 ± 0.066
313.15 K, 101 kPa, x1 = 0.9579 | 7.845 ± 0.062
318.15 K, 101.33 kPa, x1 = 0.06032 | 14.2 ± 0.29
318.15 K, 101.33 kPa, x1 = 0.09973 | 13.37 ± 0.28
318.15 K, 101.33 kPa, x1 = 0.1931 | 11.82 ± 0.25
318.15 K, 101.33 kPa, x1 = 0.3054 | 10.43 ± 0.22
318.15 K, 101.33 kPa, x1 = 0.3986 | 9.613 ± 0.2
318.15 K, 101.33 kPa, x1 = 0.5124 | 8.834 ± 0.19
318.15 K, 101.33 kPa, x1 = 0.6012 | 8.369 ± 0.18
318.15 K, 101.33 kPa, x1 = 0.6899 | 7.95 ± 0.17
318.15 K, 101.33 kPa, x1 = 0.7926 | 7.488 ± 0.16
318.15 K, 101.33 kPa, x1 = 0.9004 | 7.031 ± 0.15
318.15 K, 101.33 kPa, x1 = 0.9614 | 6.774 ± 0.14

Cc1cc(C)cc(C)c1 + CCC(C)=O
307.35 K, 101.33 kPa
Conditions | viscosity [mPa·s]
x2 = 0.1256 | 0.549 ± 0.0096
x2 = 0.3266 | 0.5 ± 0.0092
x2 = 0.4175 | 0.479 ± 0.0091
x2 = 0.5581 | 0.443 ± 0.0088
x2 = 0.6213 | 0.428 ± 0.0086
x2 = 0.7133 | 0.409 ± 0.0085
x2 = 0.8019 | 0.389 ± 0.0083
x2 = 0.9035 | 0.368 ± 0.0082

[Cl-].[Cl-].[Cl-].[Cl-].[Sn+4] + CCCC(=O)OC
101 kPa, x1 = 0.335
Conditions | viscosity [mPa·s]
298.15 K | 22.06 ± 0.56
323.15 K | 4.849 ± 0.16

CCCCCC(CC)NC(=O)Nc1ccc(C)c(NC(=O)NC(CC)CCCCC)c1 (centres undefined) + CCCCC
Conditions | viscosity [mPa·s]
293.15 K, 100 kPa, x1 = 0.0002 | 86 ± 6

O=S=O + CCCCCCC
298.15 K, 101 kPa
Conditions | viscosity [mPa·s]
x1 = 0.0265 | 0.3767 ± 0.0099
x1 = 0.0489 | 0.3719 ± 0.0098

CC(C)Cc1ccccc1 + CCCCCCCCCCCC
viscosity [mPa·s], 102 kPa
Conditions | x1 = 0.1006 | x1 = 0.2004 | x1 = 0.2996 | x1 = 0.3998 | x1 = 0.5 | x1 = 0.6001 | x1 = 0.6993 | x1 = 0.7997 | x1 = 0.8998
293.15 K | 1.41 ± 0.02 | 1.35 ± 0.02 | 1.28 ± 0.02 | 1.23 ± 0.02 | 1.17 ± 0.02 | 1.13 ± 0.02 | 1.09 ± 0.02 | 1.05 ± 0.02 | 1.03 ± 0.02
303.15 K | 1.19 ± 0.02 | 1.14 ± 0.02 | 1.09 ± 0.02 | 1.05 ± 0.02 | 1 ± 0.02 | 0.97 ± 0.021 | 0.945 ± 0.021 | 0.915 ± 0.021 | 0.896 ± 0.021
313.15 K | 1.02 ± 0.02 | 0.984 ± 0.021 | 0.949 ± 0.021 | 0.915 ± 0.021 | 0.88 ± 0.021 | 0.848 ± 0.021 | 0.823 ± 0.021 | 0.798 ± 0.021 | 0.781 ± 0.021
323.15 K | 0.892 ± 0.021 | 0.861 ± 0.021 | 0.83 ± 0.021 | 0.8 ± 0.021 | 0.773 ± 0.021 | 0.749 ± 0.021 | 0.726 ± 0.021 | 0.706 ± 0.021 | 0.691 ± 0.021

CCC(C)CC + CCCCCCCCCCCCCCCC
298 K, 101.33 kPa
Conditions | viscosity [mPa·s]
x1 = 0.1071 | 2.635 ± 0.033
x1 = 0.2084 | 2.224 ± 0.028
x1 = 0.3095 | 1.87 ± 0.024
x1 = 0.4069 | 1.554 ± 0.02
x1 = 0.5054 | 1.274 ± 0.017
x1 = 0.6034 | 1.022 ± 0.014
x1 = 0.7044 | 0.7813 ± 0.011
x1 = 0.8037 | 0.5939 ± 0.0086
x1 = 0.902 | 0.4194 ± 0.0065

CCCCCCCCCCCCCCC + CCCCCCCCCCO
100 kPa, x1 = 0.2565
Conditions | viscosity [mPa·s]
298.2 K | 6.68 ± 0.41
308.2 K | 4.73 ± 0.29
318.2 K | 3.47 ± 0.21
